Assay [1] deals with stable HCV 1a RLuc replicon cells (dicistronic genotype 1a H77 replicon). Put plainly: Renilla luciferase HCV replicon reporter assay, genotype 1a. The assay is classed as cell-based. The conditions noted are these: Hepatitis C virus, 72 h, stable 1a H77 RLuc replicon cells. Put shortly: (§1)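 Cells carrying the stable or transiently transfected (Huh-Lunet) dicistronic RLuc replicons received 3-fold serial compound dilutions from 10 mM DMSO stocks. After 72 h, cells were lysed and Renilla luciferase read. DMSO served as the no-inhibition control and ITMN-191 above 100×EC50 as the positive control; EC50 by non-linear regression.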
(In general: A replicon is a self-replicating genome or part of one, used to study replication in cells.)

For assay [2], the system named is NS5A chimeric genotype 2a JFH-1 replicon with genotype 2a J6 strain NS5A gene (M31 present). Put plainly: Replicon assay, genotype 2a J6 NS5A chimera. The assay is classed as cell-based, HCV. The conditions noted are these: Hepatitis C virus; for EC50: read-out: 2a J6 (t) (nM), genotype 2a J6 NS5A chimeric replicon (M31), transiently transfected (t) into Huh-Lunet cells; for pEC50: read-out: 2a J6 (t), transiently transfected (t) into Huh-Lunet cells, activity range. Put shortly:
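Antiviral EC50 was determined in HCV replicon cells (stable RLuc lines for 1a H77, 1b Con1, 2a JFH-1 with NS5A L31; J6 NS5A chimera with M31) treated 72 h with compound. Renilla luciferase was then quantified.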

The subject of assay [3] is Q30R in genotype 1a NS5A (1a Pi-Rluc replicon, Huh-7-derived cured-51 cells). Put plainly: Replicon assay against resistance mutant 1a Q30R. The conditions noted are these: Hepatitis C virus; for pEC50: read-out: 1a Q30R; for EC50: read-out: 1a Q30R (nM). In kind it is cell-based, HCV. The protocol: Antiviral potency (EC50) was determined using a Renilla luciferase (RLuc)-based HCV replicon reporter assay. To perform the assay for genotype 1 and 2a JFH-1, stable HCV 1a RLuc replicon cells (harboring a dicistronic genotype 1a H77 replicon that encodes a RLuc reporter), stable HCV 1b RLuc replicon cells (harboring a dicistronic genotype 1b Con1 replicon that encodes a RLuc reporter), or stable HCV 2a JFH-1 Rluc replicon cells (harboring a dicistronic genotype 2a JFH-1 replicon that encodes a RLuc reporter; with L31 present in NS5A) were dispensed into 384-well plates for EC50 assays. To perform the assay for genotype 2a (with M31 present in NS5A) or 2b, NS5A chimeric genotype 2a JFH-1 replicons that encodes a RLuc-Neo reporter and either genotype 2a J6 strain NS5A gene or genotype 2b MD2b-1 strain NS5A gene (both with M31 present) respectively, were either transiently transfected (t) into Huh-Lunet cells or were established as stably replicating replicon cells (s) is provided. Either cells were dispensed into 384-well plates for EC50 assays. To perform the assay for genotype 3 and 4, NS5A chimeric genotype 1b Con1 replicons that encodes a Pi-RLuc reporter and either genotype 3a S52 strain NS5A gene or genotype 4a ED43 strain NS5A gene respectively, were transiently transfected (t) into Huh-Lunet cells, which were subsequently dispensed into 384-well plates. Compounds were dissolved in DMSO at a concentration of 10 mM and diluted in DMSO either manually or using an automated pipeting instrument. Serially 3-fold diluted compounds were either manually mixed with cell culture media and added to the seeded cells or directly added to the cells using an automated instrument. DMSO was used as a negative (solvent; no inhibition) control, and the protease inhibitor ITMN-191 was included at a concentration>100×EC50 as a positive control. 72 hours later, cells were lysed and Renilla luciferase activity quantified as recommended by the manufacturer (Promega-Madison, Wis.). Non-linear regression was performed to calculate EC50 values.
To determine the antiviral potency (EC50) against resistance mutants, resistance mutations, including M28T, Q30R, Q30H, Q30E, L31M, Y93C, Y93H, and Y93N in genotype 1a NS5A, Y93H and L31V/Y93H in genotype 1b NS5A, and Y93H for in genotype 3a NS5A, were introduced individually into either 1a Pi-Rluc or 1b Pi-Rluc replicons by site directed mutagenesis. Replicon RNA of each resistant mutant was transiently transfected into Huh-7-derived cured-51 cells and antiviral potency was determined on these transfected cells as described above.

The subject of assay [4] is NS5A chimeric genotype 2a JFH-1 replicon with genotype 2b MD2b-1 strain NS5A gene (M31 present). Put plainly: Replicon assay, genotype 2b NS5A chimera. The conditions noted are these: Hepatitis C virus; for pEC50: 2BS, read-out: 2b (s), stably replicating replicon cells (s), activity range; for EC50: read-out: 2b (s) (nM), genotype 2b MD2b-1 NS5A chimeric replicon (M31), stably replicating replicon cells (s). In kind it is cell-based, HCV. An outline of the steps: as §1

Assay [5] concerns NS5A chimeric genotype 1b Con1 replicon with genotype 4a ED43 strain NS5A gene. Put plainly: Replicon assay, genotype 4a NS5A chimera. The assay is classed as cell-based, HCV. The conditions noted are these: Hepatitis C virus; for EC50: read-out: 4a (s) (nM), genotype 4a NS5A chimeric replicon, stable replicon cells (s); for pEC50: read-out: 4a (s), (s), activity range.
In assay [6] the test system is NS5A chimeric genotype 1b Con1 replicon with genotype 3a S52 strain NS5A gene. Put plainly: Replicon assay, genotype 3a NS5A chimera. The assay is classed as cell-based, HCV. The conditions noted are these: Hepatitis C virus; for pEC50: activity range.
Assay [7] deals with stable HCV 2a JFH-1 Rluc replicon cells (L31 present in NS5A). Put plainly: Renilla luciferase HCV replicon reporter assay, genotype 2a JFH-1. In kind it is cell-based. The conditions noted are these: Hepatitis C virus; for EC50: read-out: 2a JFH (nM), genotype 2a JFH-1 replicon (L31 in NS5A), stable cells; for pEC50: read-out: 2a JFH, stable 2a JFH-1 Rluc replicon cells, L31 in NS5A, activity range. An outline of the steps:
as §1

In assay [8] the test system is stable HCV 1b RLuc replicon cells (dicistronic genotype 1b Con1 replicon). Put plainly: Renilla luciferase HCV replicon reporter assay, genotype 1b. In kind it is cell-based. The conditions noted are these: Hepatitis C virus, 72 h, stable 1b Con1 RLuc replicon cells, 72 hours; read-out: 1b. An outline of the steps:
as §1

Setting [9] is: read-out: 3a (s) (nM), genotype 3a NS5A chimeric replicon, stable replicon cells (s).

pEC50: −log10 of the molar value. Read-outs that look alike come from different tables or passages of the source.

As for `COC(=O)N[C@H](C(=O)N1[C@@H](C)CC[C@H]1c1ncc(-c2ccc3c(c2)COc2cc4c(ccc5nc([C@@H]6CC[C@H](C)N6C(=O)[C@H](NC(=O)OC)c6ccccc6)[nH]c54)cc2-3)[nH]1)C(C)C` [FB, Methyl {(1R)-2-[(2S,5S)-2-(9-{2-[(2S,5S)-1-{(2S)-2-[(methoxycarbonyl)amino]-3-methylbutanoyl}-5-methylpyrrolidin-2-yl]-1H-imidazol-5-yl}-1,11-dihydroisochromeno[4′,3′:6,7]naphtho[1,2-d]imidazol-2-yl)-5-methylpyrrolidin-1-yl]-2-oxo-1-phenylethyl}carbamate], the pEC50 is 11.05 in assay [1]; above 10.00 in assay [1] (activity range); 9.00 to 10.00 in assay [2]; above 10.00 in assay [3]; above 10.00 in assay [4]; above 10.00 in assay [5]. The pEC50 is above 10.00 in assay [6] (read-out: 3a (s), (s)); above 10.00 in assay [7]; 10.85 in assay [8]. For the same compound, the EC50 amounted to 0.105 nM in assay [2]; 0.077 nM in assay [3]; 0.081 nM in assay [4]; 0.01 nM in assay [5]; 0.026 nM in assay [6] (setting [9]); 0.013 nM in assay [7].

Take `COC[C@H](NC(=O)OC)C(=O)N1[C@@H](C)CC[C@H]1c1nc2ccc3cc4c(cc3c2[nH]1)OCc1cc(-c2cnc([C@@H]3CC[C@H](C)N3C(=O)[C@@H](NC(=O)OC)C(C)C)[nH]2)ccc1-4` [FE, Methyl [(2S)-1-{(2S,5S)-2-[5-(2-{(2S,5S)-1-[N-(methoxycarbonyl)-O-methyl-L-seryl]-5-methylpyrrolidin-2-yl}-1,11-dihydroisochromeno[4′,3′:6,7]naphtho[1,2-d]imidazol-9-yl)-1H-imidazol-2-yl]-5-methylpyrrolidin-1-yl}-3-methyl-1-oxobutan-2-yl]carbamate]: the pEC50 was 10.92 in assay [1]; above 10.00 in assay [1] (activity range); 9.00 to 10.00 in assay [2]; 9.00 to 10.00 in assay [3]; 9.00 to 10.00 in assay [4]; above 10.00 in assay [5]. Besides, the pEC50 in assay [6] (read-out: 3a (s), (s)) was above 10.00; in assay [7], above 10.00; in assay [8], 10.82. Further, the EC50 in assay [2] worked out at 0.122 nM; in assay [3] it was 0.253 nM; in assay [4], 0.463 nM; in assay [5], 0.012 nM; in assay [6] (setting [9]) it was 0.072 nM; in assay [7], 0.016 nM.

As to `COC(=O)N[C@H](C(=O)N1[C@@H](C)CC[C@H]1c1ncc(-c2ccc3c(c2)COc2cc4c(ccc5nc([C@@H]6CC[C@H](C)N6C(=O)[C@@H](NC(=O)OC)[C@@H](C)OC(C)(C)C)[nH]c54)cc2-3)[nH]1)C(C)C` [FG, Methyl {(2S,3R)-3-tert-butoxy-1-[(2S,5S)-2-(9-{2-[(2S,5S)-1-{(2S)-2-[(methoxycarbonyl)amino]-3-methylbutanoyl}-5-methylpyrrolidin-2-yl]-1H-imidazol-5-yl}-1,11-dihydroisochromeno[4′,3′:6,7]naphtho[1,2-d]imidazol-2-yl)-5-methylpyrrolidin-1-yl]-1-oxobutan-2-yl}carbamate], the pEC50 in assay [1] was 10.62; in assay [1] (activity range) it was above 10.00; in assay [2], 7.36 to 9.00; in assay [3] it was 9.00 to 10.00; in assay [4], 7.36 to 9.00; in assay [5] it was above 10.00. For the same compound, the pEC50 in assay [6] (read-out: 3a (s), (s)) is 9.00 to 10.00; in assay [7] it was above 10.00; in assay [8] it was 10.40. In addition, the EC50 in assay [2] was 1.45 nM; in assay [3], 0.577 nM; in assay [4] it was 1.53 nM; in assay [5] it was 0.044 nM; in assay [6] (setting [9]), 0.298 nM; in assay [7], 0.047 nM.

On to `COC(=O)N[C@H](C(=O)N1[C@@H](C)CC[C@H]1c1ncc(-c2ccc3c(c2)COc2cc4c(ccc5nc([C@@H]6CC[C@H](C)N6C(=O)[C@@H](NC(=O)OC)[C@H](C)OC)[nH]c54)cc2-3)[nH]1)C(C)C` [FK, Methyl [(2S)-1-{(2S,5S)-2-[5-(2-{(2S,5S)-1-[N-(methoxycarbonyl)-O-methyl-L-allothreonyl]-5-methylpyrrolidin-2-yl}-1,11-dihydroisochromeno[4′,3′:6,7]naphtho[1,2-d]imidazol-9-yl)-1H-imidazol-2-yl]-5-methylpyrrolidin-1-yl}-3-methyl-1-oxobutan-2-yl]carbamate], for which the pEC50 in assay [1] was 10.62; in assay [1] (activity range), above 10.00; in assay [2], 9.00 to 10.00; in assay [3], 9.00 to 10.00; in assay [4], 9.00 to 10.00; in assay [5], above 10.00. Also, the pEC50 was 9.00 to 10.00 in assay [6] (read-out: 3a (s), (s)); above 10.00 in assay [7]; 10.43 in assay [8]. Besides, the EC50 in assay [2] was 0.4 nM; in assay [3] it was 0.498 nM; in assay [4], 0.476 nM; in assay [5], 0.018 nM; in assay [6] (setting [9]), 0.137 nM; in assay [7], 0.038 nM.

On to `COC(=O)N[C@H](C(=O)N1[C@@H](C)CC[C@H]1c1nc(Cl)c(-c2ccc3c(c2)COc2cc4c(ccc5nc([C@@H]6CC[C@H](C)N6C(=O)[C@@H](NC(=O)OC)[C@@H](C)OC)[nH]c54)cc2-3)[nH]1)[C@@H](C)OC` [GB, Methyl [(2S,3R)-1-{(2S,5S)-2-[9-(4-chloro-2-{(2S,5S)-1-[N-(methoxycarbonyl)-O-methyl-L-threonyl]-5-methylpyrrolidin-2-yl}-1H-imidazol-5-yl)-1,11-dihydroisochromeno[4′,3′:6,7]naphtho[1,2-d]imidazol-2-yl]-5-methylpyrrolidin-1-yl}-3-methoxy-1-oxobutan-2-yl]carbamate], for which the pEC50 in assay [1] was 10.80; in assay [1] (activity range) it was above 10.00; in assay [2], above 10.00; in assay [3] it was above 10.00; in assay [4], above 10.00; in assay [5], above 10.00. Moreover, the pEC50 in assay [6] (read-out: 3a (s), (s)) is above 10.00; in assay [6] (read-out: 3a (t), transiently transfected (t) into Huh-Lunet cells), above 10.00; in assay [7] it was above 10.00; in assay [8], 10.72. The EC50 in assay [2] turned out to be 0.023 nM; in assay [3] it was 0.075 nM; in assay [4], 0.089 nM; in assay [5], 0.007 nM; in assay [6] (setting [9]), 0.029 nM; in assay [6] (read-out: 3a (t) (nM), genotype 3a NS5A chimeric replicon, transiently transfected (t)) it was 0.034 nM. The EC50 in assay [7] worked out at 0.011 nM.

These data come from patent publication US10800789B2, “Antiviral compounds” (Gilead Pharmasset LLC, priority 2012, dated 2020).
